# Laboratory results from publication PMC5469811, “Identification of GXXXXG motif in Chrysophsin-1 and its implication in the design of analogs with cell-selective antimicrobial and anti-endotoxin activities” (Scientific Reports, 2017).
# Residues, ends and D or L forms follow the SMILES beside them.
# What was measured:
# [1] = system: Bacillus subtilis (ATCC 6633); assay: microbe, parasite or virus in culture; type: cell-based; details: ATCC 6633; read-out: Minimum inhibitory concentration (MIC)
# Procedure: (§1) Antibacterial assay against various Gram-positive and Gram-negative strains of bacteria was performed by the serial two-fold dilution method according to the previously reported procedure, [36]. The antibacterial assays were repeated thrice and the averages of these MIC values were reported.
# [2] = system: Escherichia coli (ATCC 25922); assay: microbe, parasite or virus in culture; type: cell-based; details: ATCC 25922; read-out: Minimum inhibitory concentration (MIC)
# Procedure: as §1
# [3] = system: Escherichia coli (ATCC 9637); assay: microbe, parasite or virus in culture; type: cell-based; details: ATCC 9637; read-out: Minimum inhibitory concentration (MIC)
# Procedure: as §1
# [4] = system: Klebsiella pneumoniae (ATCC 27736); assay: microbe, parasite or virus in culture; type: cell-based; details: ATCC 27736; read-out: Minimum inhibitory concentration (MIC)
# Procedure: as §1
# [5] = system: Pseudomonas aeruginosa (ATCC BAA-427); assay: microbe, parasite or virus in culture; type: cell-based; details: ATCC BAA-427; read-out: Minimum inhibitory concentration (MIC)
# Procedure: as §1
# [6] = system: Staphylococcus aureus (ATCC 25923); assay: microbe, parasite or virus in culture; type: cell-based; details: ATCC 25923; read-out: Minimum inhibitory concentration (MIC)
# Procedure: as §1
# [7] = system: Staphylococcus aureus (ATCC 29213); assay: microbe, parasite or virus in culture; type: cell-based; details: ATCC 29213; read-out: Minimum inhibitory concentration (MIC)
# Procedure: as §1
# [8] = system: Staphylococcus aureus (ATCC 33592) Methicillin resistant Genatmicin resistant; assay: microbe, parasite or virus in culture; type: cell-based; details: ATCC 33592; read-out: Minimum inhibitory concentration (MIC)
# Procedure: as §1
# [9] = system: Staphylococcus aureus (ATCC 700698 MRSA); assay: microbe, parasite or virus in culture; type: cell-based; details: ATCC 700698; read-out: Minimum inhibitory concentration (MIC)
# Procedure: as §1
# [10] = system: Staphylococcus aureus (ATCC 700699 MRSA); assay: microbe, parasite or virus in culture; type: cell-based; details: ATCC 700699; read-out: Minimum inhibitory concentration (MIC)
# Procedure: as §1
# [11] = system: Staphylococcus aureus (BAA-44)MDR; assay: microbe, parasite or virus in culture; type: cell-based; details: BAA-44; read-out: Minimum inhibitory concentration (MIC)
# Procedure: as §1
# [12] = system: Candida albicans (ATCC 10231); assay: microbe, parasite or virus in culture; type: cell-based; details: ATCC 10231, 48 h; read-out: Minimum inhibitory concentration (MIC)
# Procedure: (§2) The anti- fungal activity of peptides was performed according to the standard micro broth dilution technique as per NCCLS guidelines. These plates were incubated in a moist chamber at 35 °C, and an absorbance at 492 nm was recorded on a VersaMax microplate reader after 48 h for C. albicans ATCC 10231 and C. parapsilosis ATCC 22019 and 72 h for C. neoformans.
# [13] = system: Candida parapsilosis (ATCC 22019); assay: microbe, parasite or virus in culture; type: cell-based; details: ATCC 22019, 48 h; read-out: Minimum inhibitory concentration (MIC)
# Procedure: as §2
# Cryptococcus neoformans = assay: microbe, parasite or virus in culture; type: cell-based; details: 72 h; read-out: Minimum inhibitory concentration (MIC)
# Procedure: as §2
# [14] = system: Sporothrix schenckii (Patient isolates); assay: microbe, parasite or virus in culture; type: cell-based; details: 48 h; read-out: Minimum inhibitory concentration (MIC)
# E. coli (ATCC 25922) = type: cell-based, Escherichia coli; details: ATCC 25922, 1 h
# Procedure: (§3) E. coli ATCC25922 was grown to 10^6 CFU/ml in fresh MH broth with various divalent and monovalent salts at their physiological concentrations. Serial dilutions of chrysophsin-1 and its variants prepared with the same MH broth were added to the E. coli ATCC 25922 suspensions. The bacteria were incubated at 37 °C in a shaking incubator for 18 h and the MIC values of individual peptides against E. coli ATCC 25922 were determined. Thermal tolerance of Chrysophsin-1 and its variants was checked by incubating the peptides at 4 °C, 60 °C and 90 °C for 1 h prior to MIC determination. The antibacterial activity in presence of serum was carried out by adding a final concentration of 10% fetal bovine serum in the assay diluents containing 0.4% BSA, 0.02% glacial acetic acid. The subsequent steps in both the experiments were consistent with the MIC determination method.
# E. coli ATCC 25922 [15] = type: cell-based, Escherichia coli; details: ATCC 25922, 18 h
# Procedure: as §3
# S. aureus (ATCC 25923) = type: cell-based, Staphylococcus aureus; details: ATCC 25923, 1 h
# Procedure: as §3
# E. coli ATCC 25922 [16] = assay: Synergy with conventional antibiotics, checkerboard titration; type: cell-based, Escherichia coli
# Procedure: The checkerboard titration method was followed to check the synergy of peptides with other antibiotics. First, 2-fold serial dilutions of the antibiotics and antimicrobial peptides were prepared. Subsequently, 50 μl each of different concentrations of antibiotics and of antimicrobial peptides was mixed and added into 100 μl of log phase bacteria culture in a 96-well plate. The plates were then incubated at 37 °C for 24 h. The fractional inhibitory concentration (FIC) index (FICI) was calculated as follows[39]: FICI=(MICofdrugAincombination)/(MICofdrugAalone)+(MICofdrugBincombination)/(MICofdrugB): FICI < 0.5 is considered to indicate synergy; 0.5 < FICI < 1.0 is considered additive; 1.0 < FICI < 4.0 is considered indifferent; and FICI > 4.0 is considered antagonism.
smiles,measurement,setting,value
"CC[C@H](C)[C@H](NC(=O)[C@H](C)NC(=O)CNC(=O)[C@H](CCCCN)NC(=O)[C@@H](NC(=O)[C@H](CC(C)C)NC(=O)[C@H](Cc1c[nH]c2ccccc12)NC(=O)CNC(=O)[C@H](Cc1ccccc1)NC(=O)[C@@H](N)Cc1ccccc1)[C@@H](C)CC)C(=O)N[C@@H](Cc1c[nH]cn1)C(=O)N[C@@H](C)C(=O)N1CCC[C@H]1C(=O)N[C@@H](CCCCN)C(=O)N[C@@H](C)C(=O)N[C@H](C(=O)N[C@@H](Cc1c[nH]cn1)C(=O)N1CCC[C@H]1C(=O)N[C@@H](CC(C)C)C(=O)N[C@H](C(=O)N[C@@H](Cc1c[nH]cn1)C(=O)N[C@@H](CCCNC(=N)N)C(=O)N[C@@H](CCCNC(=N)N)C(=O)N[C@@H](CCCNC(=N)N)C(=O)N[C@@H](Cc1c[nH]cn1)C(N)=O)[C@@H](C)CC)[C@@H](C)CC [G13,18P-Chr-1] (H-FFGWLIKGAIHAPKAIHPLIHRRRH-NH2; N-terminus and C-terminus assumed)",MIC,[1],3 µM
same,MIC,[2],4 µM
same,MIC,[3],6.8 µM
same,MIC,[4],27.2 µM
same,MIC,[5],13.6 µM
same,MIC,[6],3 µM
same,MIC,[7],3 µM
same,MIC,[8],1.6 µM
same,MIC,[9],3 µM
same,MIC,[10],3 µM
same,MIC,[11],3 µM
same,MIC,[12],>30 µM
same,MIC,[13],>30 µM
same,MIC,Cryptococcus neoformans,>30 µM
same,MIC,[14],>30 µM
same,Antibacterial activity (MIC) after incubating peptide at 4 °C,E. coli (ATCC 25922),4 µM
same,Antibacterial activity (MIC) after incubating peptide at 60 °C,E. coli (ATCC 25922),14 µM
same,Antibacterial activity (MIC) after incubating peptide at 90 °C,E. coli (ATCC 25922),17.2 µM
same,Antibacterial activity (MIC) in the presence of 10% FBS,E. coli ATCC 25922 [15],>33 µM
same,Antibacterial activity (MIC) in the presence of FeCl3,E. coli ATCC 25922 [15],26 µM
same,Antibacterial activity (MIC) in the presence of KCl,E. coli ATCC 25922 [15],6 µM
same,Antibacterial activity (MIC) in the presence of MgCl2,E. coli ATCC 25922 [15],20 µM
same,Antibacterial activity (MIC) in the presence of NH4Cl,E. coli ATCC 25922 [15],5 µM
same,Antibacterial activity (MIC) in the presence of NaCl,E. coli ATCC 25922 [15],20 µM
same,Antibacterial activity (MIC) in the presence of ZnCl2,E. coli ATCC 25922 [15],12 µM
same,Antibacterial activity (MIC) after incubating peptide at 4 °C,S. aureus (ATCC 25923),3 µM
same,Antibacterial activity (MIC) after incubating peptide at 60 °C,S. aureus (ATCC 25923),>33 µM
same,Antibacterial activity (MIC) after incubating peptide at 90 °C,S. aureus (ATCC 25923),>33 µM
same,interaction of peptide with chloramphenicol (by FICI),E. coli ATCC 25922 [16],additivity
